Here are results for 61 compounds from ChEMBL document CHEMBL3714716, “Modulators of the relaxin receptor 1” (2015).

As usually defined, the AC50 is the concentration at which the activity in the assay is half-maximal.

One test concerns the target T1, Relaxin receptor 1 (Homo sapiens, UniProt Q9HBX9).
T1 sequence (Q9HBX9 whole entry): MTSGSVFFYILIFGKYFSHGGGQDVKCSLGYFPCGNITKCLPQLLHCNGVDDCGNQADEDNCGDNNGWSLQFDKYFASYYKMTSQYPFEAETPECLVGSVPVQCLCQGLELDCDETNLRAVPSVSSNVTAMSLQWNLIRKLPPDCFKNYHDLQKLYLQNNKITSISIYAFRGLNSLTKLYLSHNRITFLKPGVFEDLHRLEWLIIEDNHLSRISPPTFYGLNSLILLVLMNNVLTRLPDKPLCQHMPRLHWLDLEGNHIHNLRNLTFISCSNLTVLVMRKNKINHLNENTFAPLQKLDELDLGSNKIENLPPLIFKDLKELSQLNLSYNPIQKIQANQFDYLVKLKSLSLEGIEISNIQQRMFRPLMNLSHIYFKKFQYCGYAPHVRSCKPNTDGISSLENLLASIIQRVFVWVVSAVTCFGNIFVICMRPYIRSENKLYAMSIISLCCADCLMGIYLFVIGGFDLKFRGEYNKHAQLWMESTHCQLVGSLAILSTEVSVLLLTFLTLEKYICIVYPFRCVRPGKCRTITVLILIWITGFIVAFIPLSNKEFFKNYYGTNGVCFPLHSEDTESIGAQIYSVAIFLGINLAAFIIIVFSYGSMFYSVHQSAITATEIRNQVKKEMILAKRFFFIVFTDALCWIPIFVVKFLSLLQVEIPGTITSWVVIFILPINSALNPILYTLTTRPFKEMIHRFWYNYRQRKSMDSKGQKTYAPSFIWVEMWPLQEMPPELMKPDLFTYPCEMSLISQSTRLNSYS
The test can be described thus: Agonist activity at RXFP1 receptor (unknown origin) expressed in HEK293 cells assessed as stimulation of cAMP production incubated for 30 mins by TR-FRET based HTRF assay. Format: functional, cell-based. (In general: Cyclic AMP is a second messenger, typically raised through Gs and lowered through Gi signalling.)

The target in test [1] is T2, Relaxin receptor 1 (Homo sapiens) (UniProt Q9HBX9).
T2 sequence (whole entry): T1 sequence (Q9HBX9 whole entry)
As to the kind of experiment: Agonist activity at RXFP1 receptor (unknown origin) expressed in HEK293 cells assessed as stimulation of cAMP production incubated for 30 mins by TR-FRET based HTRF assay relative to forskolin. Format: functional, cell-based.

Each structure is given as a SMILES string. Active and inactive are the calls of the source. No cut-off for these calls is given here.

For `O=C(Nc1ccccc1C(=O)Nc1cccc(C(F)(F)F)c1)c1ccc([N+](=O)[O-])cc1`, the AC50 on Relaxin receptor 1 (read-out: AC50) came out at 1.49 µM. The %max in test [1] came to 96%.

As to `O=C(Nc1cccc(C(F)(F)F)c1)c1ccccc1NC(=O)c1ccccc1Oc1ccccc1`, on Relaxin receptor 1 (read-out: AC50), the AC50 turned out to be 0.747 µM. In addition, the %max in test [1] worked out at 97%. For `O=C(Nc1cccc(-c2cccc(C(F)(F)F)c2)c1)c1ccccc1NC(=O)C1CCCCC1`, the “%max” value in test [1] is “inactive”.

For `O=C(Nc1cccc(C(F)(F)F)c1)c1ccccc1OCCN1CCOCC1`, the AC50 entry on Relaxin receptor 1 (hek293) was “Not Active”. Further, the “%max” value in test [1] is “inactive”. Take `O=C(Nc1cccc(Br)c1)c1ccccc1NC(=O)C1CCCCC1`: at Relaxin receptor 1 (read-out: AC50), the AC50 is 2.65 µM. Also, the %max in test [1] came out at 91%. The corresponding values for `Cc1ccccc1C(=O)Nc1ccccc1C(=O)Nc1cccc(C(F)(F)F)c1` are 4.2 µM and 90%. The corresponding values for `O=C(Nc1ccccc1C(=O)Nc1cccc(S(=O)(=O)C(F)(F)F)c1)c1ccccc1I` are 4.2 µM and 85%. As to `COCCOc1ccccc1C(=O)Nc1cccc(C(F)(F)F)c1`, on Relaxin receptor 1 (hek293), the AC50 result is recorded as “Not Active”. In addition, the “%max” value in test [1] is “inactive”.

On to `N#Cc1cccc(C(=O)Nc2ccccc2C(=O)Nc2cccc(C(F)(F)F)c2)c1`, for which, on Relaxin receptor 1 (read-out: AC50), the AC50 worked out at 2.1 µM. Further, the %max in test [1] was 96%. Take `CC(=O)c1ccc(C(=O)Nc2ccccc2C(=O)Nc2cccc(C(F)(F)F)c2)cc1`: at Relaxin receptor 1 (read-out: AC50), the AC50 was determined as 5.93 µM. Moreover, in test [1], the %max turned out to be 71%.

With `O=C(Nc1cccc(C(F)(F)F)c1)c1ccccc1NC(=O)c1ccccc1OCCN1CCOCC1`, the AC50 at Relaxin receptor 1 (read-out: AC50) was 4.71 µM. For the same compound, the %max in test [1] was 98%. The corresponding values for `CCSc1ccccc1C(=O)Nc1ccccc1C(=O)Nc1cccc(S(=O)(=O)C(F)(F)F)c1` are 0.529 µM and 95%. On to `COc1ccccc1-c1ccccc1C(=O)Nc1cccc(C(F)(F)F)c1`, for which, on Relaxin receptor 1 (hek293), the AC50 entry was “Not Active”. Moreover, in test [1], the “%max” value was “inactive”. As to `COc1ccc(C(=O)Nc2ccccc2C(=O)Nc2cccc(C(F)(F)F)c2)cc1`, the AC50 on Relaxin receptor 1 (read-out: AC50) is 9.4 µM. Moreover, in test [1], the %max was 71%. The corresponding values for `CCOc1ccccc1C(=O)Nc1ccccc1-c1nc2cc(C(F)(F)F)ccc2[nH]1` are 149 µM and 31%. `O=C(Nc1ccc2c(c1)OCO2)c1ccccc1NC(=O)C1CCCCC1`: the AC50 at Relaxin receptor 1 (read-out: AC50) amounted to 74.7 µM. In addition, the %max in test [1] came out at 58%.

As to `O=C(Nc1ccccc1C(=O)Nc1cccc(C(F)(F)F)c1)c1cccc(C(F)(F)F)c1`, the AC50 at Relaxin receptor 1 (read-out: AC50) came to 2.97 µM. In addition, in test [1], the %max stood at 95%. As to `COc1ccccc1Nc1ccccc1C(=O)Nc1cccc(C(F)(F)F)c1`, on Relaxin receptor 1 (read-out: AC50), the AC50 stood at 4.71 µM. Moreover, the %max in test [1] is 77%. Take `O=C(NCc1ccc(C(F)(F)F)cc1)c1ccccc1NC(=O)C1CCCCC1`: the AC50 result on Relaxin receptor 1 (hek293) is “Not Active”. Besides, the “%max” value in test [1] was “inactive”.

As for `N#Cc1ccc(C(=O)Nc2ccccc2C(=O)Nc2cccc(C(F)(F)F)c2)cc1`, the AC50 on Relaxin receptor 1 (read-out: AC50) was 1.67 µM. Moreover, in test [1], the %max came to 96%. In the case of `CC(C)(C)OC(=O)Nc1ccccc1C(=O)Nc1cccc(C(F)(F)F)c1`, the AC50 on Relaxin receptor 1 (read-out: AC50) came to 5.29 µM. The %max in test [1] was determined as 79%. The corresponding values for `O=C(Nc1cccc(Cl)c1)c1ccccc1NC(=O)C1CCCCC1` are 3.34 µM and 89%. Take `O=C(Nc1cccc(C(F)(F)F)c1)c1ccccc1-c1ccccc1OCc1ccccc1`: the AC50 result at Relaxin receptor 1 (hek293) is recorded as “Not Active”. Moreover, in test [1], the “%max” value was “inactive”.

Regarding `O=C(Nc1cccc(C(F)(F)F)c1)c1ccccc1NC(=O)c1ccccc1OCCN1CCCCC1`, the AC50 at Relaxin receptor 1 (read-out: AC50) worked out at 2.65 µM. Moreover, the %max in test [1] stood at 99%. The corresponding values for `CCOc1ccccc1C(=O)NCCC(=O)Nc1cccc(S(=O)(=O)C(F)(F)F)c1` are 4.71 µM and 90%. The corresponding values for `O=C(Cc1ccccc1)Nc1ccccc1C(=O)Nc1cccc(C(F)(F)F)c1` are 8.38 µM and 86%. In the case of `O=C(Nc1cccc(C(F)(F)F)c1)c1ccccc1OCCN1CCNCC1`, the AC50 entry at Relaxin receptor 1 (hek293) is “Not Active”. In addition, the “%max” value in test [1] was “inactive”. The matching figures for `O=C(Nc1cccc(C(F)(F)F)c1)c1ccccc1NC(=O)c1ccccc1OCCN1CCNCC1`: “Not Active” and “inactive”. `O=C(Nc1cccc(C(F)(F)F)c1)c1ccccc1NC(=O)c1ccccc1C(F)(F)F`: the AC50 on Relaxin receptor 1 (read-out: AC50) was 7.47 µM. The %max in test [1] came out at 70%. As for `O=C(Nc1ccccc1C(=O)Nc1cccc(C(F)(F)F)c1)c1cccc(-c2ccccc2)c1`, the AC50 on Relaxin receptor 1 (read-out: AC50) was 5.29 µM. In addition, the %max in test [1] stood at 89%. The matching figures for `O=C(Nc1cccc(SC(F)(F)F)c1)c1ccccc1NC(=O)C1CCCCC1`: 1.88 µM and 90%.

For `O=C(Nc1ccccc1C(=O)Nc1cccc(C(F)(F)F)c1)c1ccc(Br)cc1`, on Relaxin receptor 1 (read-out: AC50), the AC50 is 4.2 µM. The %max in test [1] amounted to 93%. Take `CCCCC(=O)Nc1ccccc1C(=O)Nc1cccc(C(F)(F)F)c1`: at Relaxin receptor 1 (read-out: AC50), the AC50 is 5.29 µM. Also, the %max in test [1] was determined as 94%. For the compound `O=C(Nc1ccccc1C(=O)Nc1cccc(C(F)(F)F)c1)c1ccccc1Br`, the AC50 at Relaxin receptor 1 (read-out: AC50) was found to be 7.47 µM. In addition, in test [1], the %max came to 78%. As for `CCOc1ccccc1C(=O)Nc1ccccc1C(=O)Nc1cccc(I)c1`, the concentration at half-maximal activity (AC50) at Relaxin receptor 1 (read-out: AC50) is 0.747 µM. In test [1], the %max amounted to 96%. In the case of `CN(C)CCCOc1ccccc1C(=O)Nc1ccccc1C(=O)Nc1cccc(C(F)(F)F)c1`, the half-maximal activity concentration (AC50) on Relaxin receptor 1 (read-out: AC50) came to 59.3 µM. In addition, the %max in test [1] is 66%. With `O=C(Nc1cccc(C(F)(F)F)c1)c1ccccc1NCc1cccc(C(F)(F)F)c1`, the AC50 on Relaxin receptor 1 (read-out: AC50) was found to be 47.1 µM. Also, the %max in test [1] stood at 71%.

As to `O=C(Nc1cccc(C(F)(F)F)c1)c1ccccc1Nc1ccccc1`, the concentration at half-maximal activity (AC50) at Relaxin receptor 1 (read-out: AC50) was found to be 4.2 µM. For the same compound, in test [1], the %max worked out at 84%. The corresponding values for `O=C(NCc1ccco1)c1ccccc1NC(=O)c1ccccc1NC(=O)C1CCCCC1` are 9.4 µM and 45%. The matching figures for `CC(=O)Nc1ccccc1C(=O)Nc1cccc(C(F)(F)F)c1`: 74.7 µM and 51%.

For the compound `COc1ccccc1C(=O)Nc1ccccc1C(=O)Nc1cccc(N2CCCCC2)c1`, the AC50 at Relaxin receptor 1 (read-out: AC50) worked out at 5.29 µM. Also, in test [1], the %max is 77%.

In the case of `O=C(Nc1cccc(-c2ccccc2C(F)(F)F)c1)c1ccccc1NC(=O)C1CCCCC1`, the concentration at half-maximal activity (AC50) at Relaxin receptor 1 (read-out: AC50) is 2.65 µM. Besides, the %max in test [1] was 74%. In the case of `O=C(Nc1cccc(-c2ccccc2)c1)c1ccccc1NC(=O)C1CCCCC1`, the “%max” value in test [1] is “inactive”. As to `COc1ccc(NC(=O)c2ccccc2NC(=O)C2CCCCC2)cc1`, on Relaxin receptor 1 (hek293), the AC50 entry was “Not Active”. Also, the “%max” value in test [1] was “inactive”. With `O=C(Nc1cccc(C(F)(F)F)c1)c1ccccc1NC(=O)C1CCCC1`, the AC50 at Relaxin receptor 1 (read-out: AC50) worked out at 2.36 µM. The %max in test [1] is 88%. Regarding `COc1ccccc1C(=O)Nc1ccccc1C(=O)N(C)c1cccc(C(F)(F)F)c1`, the AC50 on Relaxin receptor 1 (read-out: AC50) was found to be 29.7 µM. The %max in test [1] is 77%. Take `CCOc1ccccc1C(=O)Nc1ccccc1C(=O)Nc1cncc(I)c1`: the %max in test [1] was determined as 72%. Take `COc1ccccc1C(=O)Nc1ccccc1C(=O)Nc1cccc(S(C)(=O)=O)c1`: at Relaxin receptor 1 (read-out: AC50), the AC50 came out at 6.66 µM. In test [1], the %max was determined as 95%. Take `O=C(Nc1cccc(C(F)(F)F)c1)c1ccccc1NC(=O)C1CCCCCC1`: the AC50 on Relaxin receptor 1 (read-out: AC50) is 2.11 µM. The %max in test [1] is 75%. The matching figures for `O=C(Nc1cccc(F)c1)c1ccccc1NC(=O)C1CCCCC1`: 13.3 µM and 81%. For `O=C(Nc1cccc(C(F)(F)F)c1)c1ccccc1NC(=O)C1CC1`, the AC50 on Relaxin receptor 1 (read-out: AC50) was found to be 8.38 µM. For the same compound, in test [1], the %max turned out to be 79%. `O=C(Nc1cccc(C(F)(F)F)c1)c1ccccc1OCCN1CCCCC1`: the AC50 result at Relaxin receptor 1 (hek293) is “Not Active”. The “%max” value in test [1] was “inactive”. The matching figures for `O=C(Nc1cccc(N2CCCCC2)c1)c1ccccc1NC(=O)C1CCCCC1`: “Not Active” and “inactive”. Take `O=C(Nc1ccc(Br)cc1)c1ccccc1NC(=O)C1CCCCC1`: the half-maximal activity concentration (AC50) at Relaxin receptor 1 (read-out: AC50) amounted to 118 µM. Also, in test [1], the %max came to 50%. On to `COc1ccccc1C(=O)Nc1cccc(C(=O)Nc2cccc(C(F)(F)F)c2)c1`, for which the “%max” value in test [1] was “inactive”.

Regarding `CCOc1ccccc1S(=O)(=O)Nc1ccccc1C(=O)Nc1cccc(S(=O)(=O)C(F)(F)F)c1`, the “%max” value in test [1] was “inactive”. The same measure, in the same setting: in the case of `COc1ccccc1C(=O)N(C)c1ccccc1C(=O)Nc1cccc(C(F)(F)F)c1` it was “inactive”. As for `CCOc1ccccc1-c1nc2ccccc2c2nc3ccc(C(F)(F)F)cc3n12`, the AC50 on Relaxin receptor 1 (read-out: AC50) was 188 µM. For the compound `Cc1ccccc1NC(=O)c1ccccc1NC(=O)C1CCCCC1`, the “%max” value in test [1] is “inactive”. For `O=C(NCc1cccc(C(F)(F)F)c1)c1ccccc1NC(=O)C1CCCCC1`, the “%max” value in test [1] was “inactive”.

On to `C/C=C\c1cccc(NC(=O)c2ccccc2NC(=O)c2ccccc2OCC)c1`, for which the %max in test [1] stood at 91%.
